Experimental data reported in PubChem BioAssay AID2060892 (Molecular Pharmacology Branch, DTP, NCI, 2025).

Tested on: HOP-62 complex spheroids with HUVEC/MSC, viability
Experiment: Anticancer human tumor HOP-62 cell line growth inhibition [RAS];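 also: spheroids exposed to agents for seven days before readout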;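 as to viability, T/C: 100% = DMSO vehicle control viability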
Settings: for viability, T/C: stronger effect = lower value
Procedure, shortened: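 Agents were tested in combination matrices in half-log decrements from a top concentration at or near clinical Cmax (10 microM if undetermined). Targets were multi-cell spheroids of tumour lines plus HUVEC and MSC stromal cells.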

[1] = curve of first compound, second compound 0.00316 µM
[2] = curve of first compound, second compound 0.01 µM
[3] = curve of first compound, second compound 0.0316 µM
[4] = curve of first compound, second compound 0.1 µM
[5] = curve of first compound, second compound 0.316 µM
[6] = curve of first compound, second compound 1 µM
[7] = second compound 0.00316 µM, first compound 0.0316 µM
[8] = second compound 0.00316 µM, first compound 0.1 µM
[9] = second compound 0.00316 µM, first compound 0.316 µM
[10] = second compound 0.00316 µM, first compound 1 µM
[11] = second compound 0.00316 µM, first compound 3.16 µM
[12] = second compound 0.00316 µM, first compound 10 µM
[13] = second compound 0.01 µM, first compound 0.0316 µM
[14] = second compound 0.01 µM, first compound 0.1 µM
[15] = second compound 0.01 µM, first compound 0.316 µM
[16] = second compound 0.01 µM, first compound 1 µM
[17] = second compound 0.01 µM, first compound 3.16 µM
[18] = second compound 0.01 µM, first compound 10 µM
[19] = second compound 0.0316 µM, first compound 0.0316 µM
[20] = second compound 0.0316 µM, first compound 0.1 µM
[21] = second compound 0.0316 µM, first compound 0.316 µM
[22] = second compound 0.0316 µM, first compound 1 µM
[23] = second compound 0.0316 µM, first compound 3.16 µM
[24] = second compound 0.0316 µM, first compound 10 µM
[25] = second compound 0.1 µM, first compound 0.0316 µM
[26] = second compound 0.1 µM, first compound 0.1 µM
[27] = second compound 0.1 µM, first compound 0.316 µM
[28] = second compound 0.1 µM, first compound 1 µM
[29] = second compound 0.1 µM, first compound 3.16 µM
[30] = second compound 0.1 µM, first compound 10 µM
[31] = second compound 0.316 µM, first compound 0.0316 µM
[32] = second compound 0.316 µM, first compound 0.1 µM
[33] = second compound 0.316 µM, first compound 0.316 µM
[34] = second compound 0.316 µM, first compound 1 µM
[35] = second compound 0.316 µM, first compound 3.16 µM
[36] = second compound 0.316 µM, first compound 10 µM
[37] = second compound 1 µM, first compound 0.0316 µM
[38] = second compound 1 µM, first compound 0.1 µM
[39] = second compound 1 µM, first compound 0.316 µM
[40] = second compound 1 µM, first compound 1 µM
[41] = second compound 1 µM, first compound 3.16 µM
[42] = second compound 1 µM, first compound 10 µM

`CC(=O)OC12COC1CC(O)C1(C)C(=O)C(O)C3=C(C)C(OC(=O)C(O)C(NC(=O)OC(C)(C)C)c4ccccc4)CC(O)(C(OC(=O)c4ccccc4)C21)C3(C)C` (stereo not drawn) + C=CC(=O)N1CCN(c2nc(OCC3CCCN3C)nc3c(F)c(-c4nc(N)cc(C)c4C(F)(F)F)c(Cl)cc23)C(C)C1 gave an IC50 [1] of under 0.0316 µM, an IC50 [2] of under 0.0316 µM and an IC50 [3] of under 0.0316 µM. The IC50 [4] was under 0.0316 µM, the IC50 [5] was under 0.0316 µM and the IC50 [6] was under 0.0316 µM. For the same compound, the viability, T/C [7] was 11.2%, the viability, T/C [8] was 14.7% and the viability, T/C [9] was 10.4%. It also gave a viability, T/C [10] of 12.3%, a viability, T/C [11] of 15.1% and a viability, T/C [12] of 20.3%. It also gave a viability, T/C [13] of 10.4%, a viability, T/C [14] of 11.1% and a viability, T/C [15] of 13.4%. The viability, T/C [16] was 10.4%, the viability, T/C [17] was 12.5% and the viability, T/C [18] was 16.6%. It also gave a viability, T/C [19] of 9.88%, a viability, T/C [20] of 11.9% and a viability, T/C [21] of 11%. The viability, T/C [22] was 13%, the viability, T/C [23] was 15.2% and the viability, T/C [24] was 14.6%. It also gave a viability, T/C [25] of 11.6%, a viability, T/C [26] of 12.4% and a viability, T/C [27] of 11.9%. It also gave a viability, T/C [28] of 13.6%, a viability, T/C [29] of 15.2% and a viability, T/C [30] of 19%. It also gave a viability, T/C [31] of 9.18%, a viability, T/C [32] of 9.55% and a viability, T/C [33] of 10.4%. For the same compound, the viability, T/C [34] was 10.9%, the viability, T/C [35] was 14.8% and the viability, T/C [36] was 20.1%. The viability, T/C [37] was 10.2%, the viability, T/C [38] was 10.5% and the viability, T/C [39] was 13%. It also gave a viability, T/C [40] of 14.2%, a viability, T/C [41] of 15.5% and a viability, T/C [42] of 20.1%.
`C=CC(=O)Nc1cc(Nc2nccc(-c3cn(C)c4ccccc34)n2)c(OC)cc1N(C)CCN(C)C` was tested, and the viability, T/C (compound 0.00316 µM) was 103% [middle of 4 runs], the viability, T/C (compound 0.01 µM) was 101% [middle of 4 runs] and the viability, T/C (compound 0.0316 µM) was 108% [middle of 4 runs]. For the same compound, the viability, T/C (compound 0.1 µM) was 110% [middle of 4 runs], the viability, T/C (compound 0.316 µM) was 110% [middle of 4 runs] and the viability, T/C (compound 1 µM) was 103% [middle of 4 runs]. It also gave an IC50 (curve of compound) of over 1 µM.
`C[C@@H](NC(=O)c1ncnc(N)c1Cl)c1ncc(C(=O)Nc2cc(C(F)(F)F)c(Cl)cn2)s1` + C=CC(=O)N1CCN(c2nc(OCC3CCCN3C)nc3c(F)c(-c4nc(N)cc(C)c4C(F)(F)F)c(Cl)cc23)C(C)C1 was tested, and the IC50 [1] was over 10 µM, the IC50 [2] was 8.69 µM and the IC50 [3] was 4.32 µM. For the same compound, the IC50 [4] was 7.86 µM, the IC50 [5] was over 10 µM and the IC50 [6] was over 10 µM. It also gave a viability, T/C [7] of 88.6%, a viability, T/C [8] of 80.2% and a viability, T/C [9] of 80.9%. It also gave a viability, T/C [10] of 83.9%, a viability, T/C [11] of 71.8% and a viability, T/C [12] of 53.3%. The viability, T/C [13] was 74.8%, the viability, T/C [14] was 67% and the viability, T/C [15] was 69.7%. The viability, T/C [16] was 67.1%, the viability, T/C [17] was 63.4% and the viability, T/C [18] was 48.1%. The viability, T/C [19] was 69.1%, the viability, T/C [20] was 67% and the viability, T/C [21] was 71.1%. The viability, T/C [22] was 70%, the viability, T/C [23] was 52.2% and the viability, T/C [24] was 43.9%. It also gave a viability, T/C [25] of 69.2%, a viability, T/C [26] of 68.5% and a viability, T/C [27] of 64%. For the same compound, the viability, T/C [28] was 70.3%, the viability, T/C [29] was 58% and the viability, T/C [30] was 47.6%. It also gave a viability, T/C [31] of 67.5%, a viability, T/C [32] of 67% and a viability, T/C [33] of 69.8%. For the same compound, the viability, T/C [34] was 64.7%, the viability, T/C [35] was 57.7% and the viability, T/C [36] was 49.2%. For the same compound, the viability, T/C [37] was 66.7%, the viability, T/C [38] was 63.3% and the viability, T/C [39] was 64.1%. It also gave a viability, T/C [40] of 63.6%, a viability, T/C [41] of 55.9% and a viability, T/C [42] of 52.4%.
`CCC(CC)c1cc(NC2CCC(N)C2)n2nccc2n1` (stereo not drawn) + CCn1c(-c2cccnc2C(C)OC)c2c3cc(ccc31)N1CCOC(CC(NC(=O)C(C(C)C)N(C)C(=O)C3(F)CCN(C(=O)C#CC(C)(C)N(C)C)CC3)C(=O)N3CCCC(N3)C(=O)OCC(C)(C)C2)C1 was tested, and the IC50 (curve of first compound, second compound 0.000949 µM) was 1.96 µM, the IC50 (curve of first compound, second compound 0.003 µM) was 1.98 µM and the IC50 (curve of first compound, second compound 0.00949 µM) was 1.86 µM. It also gave an IC50 (curve of first compound, second compound 0.03 µM) of 1.84 µM, an IC50 (curve of first compound, second compound 0.0949 µM) of 1.77 µM and an IC50 (curve of first compound, second compound 0.3 µM) of 1.7 µM. It also gave a viability, T/C (second compound 0.000949 µM, first compound 0.0316 µM) of 126%, a viability, T/C (second compound 0.000949 µM, first compound 0.1 µM) of 107% and a viability, T/C (second compound 0.000949 µM, first compound 0.316 µM) of 96.3%. For the same compound, the viability, T/C (second compound 0.000949 µM, first compound 1 µM) was 110%, the viability, T/C (second compound 0.000949 µM, first compound 3.16 µM) was 6.83% and the viability, T/C (second compound 0.000949 µM, first compound 10 µM) was 1.38%. For the same compound, the viability, T/C (second compound 0.003 µM, first compound 0.0316 µM) was 116%, the viability, T/C (second compound 0.003 µM, first compound 0.1 µM) was 101% and the viability, T/C (second compound 0.003 µM, first compound 0.316 µM) was 109%. It also gave a viability, T/C (second compound 0.003 µM, first compound 1 µM) of 118%, a viability, T/C (second compound 0.003 µM, first compound 3.16 µM) of 7.77% and a viability, T/C (second compound 0.003 µM, first compound 10 µM) of 0.66%. It also gave a viability, T/C (second compound 0.00949 µM, first compound 0.0316 µM) of 91.4%, a viability, T/C (second compound 0.00949 µM, first compound 0.1 µM) of 96.5% and a viability, T/C (second compound 0.00949 µM, first compound 0.316 µM) of 101%. It also gave a viability, T/C (second compound 0.00949 µM, first compound 1 µM) of 121%, a viability, T/C (second compound 0.00949 µM, first compound 3.16 µM) of 5.15% and a viability, T/C (second compound 0.00949 µM, first compound 10 µM) of 0.65%. For the same compound, the viability, T/C (second compound 0.03 µM, first compound 0.0316 µM) was 98.5%, the viability, T/C (second compound 0.03 µM, first compound 0.1 µM) was 99.6% and the viability, T/C (second compound 0.03 µM, first compound 0.316 µM) was 100%. For the same compound, the viability, T/C (second compound 0.03 µM, first compound 1 µM) was 113%, the viability, T/C (second compound 0.03 µM, first compound 3.16 µM) was 2.86% and the viability, T/C (second compound 0.03 µM, first compound 10 µM) was 0.81%. The viability, T/C (second compound 0.0949 µM, first compound 0.0316 µM) was 91.7%, the viability, T/C (second compound 0.0949 µM, first compound 0.1 µM) was 98.4% and the viability, T/C (second compound 0.0949 µM, first compound 0.316 µM) was 96.9%. It also gave a viability, T/C (second compound 0.0949 µM, first compound 1 µM) of 104%, a viability, T/C (second compound 0.0949 µM, first compound 3.16 µM) of 1.59% and a viability, T/C (second compound 0.0949 µM, first compound 10 µM) of 0.78%. For the same compound, the viability, T/C (second compound 0.3 µM, first compound 0.0316 µM) was 82.5%, the viability, T/C (second compound 0.3 µM, first compound 0.1 µM) was 86.8% and the viability, T/C (second compound 0.3 µM, first compound 0.316 µM) was 95%. The viability, T/C (second compound 0.3 µM, first compound 1 µM) was 95%, the viability, T/C (second compound 0.3 µM, first compound 3.16 µM) was 3.22% and the viability, T/C (second compound 0.3 µM, first compound 10 µM) was 1.08%.
